Assay results as given in US20090264483A1, “METHODS OF USING PPAR-gamma AGONISTS AND CASPASE-DEPENDENT CHEMOTHERAPEUTIC AGENTS FOR THE TREATMENT OF CANCER” (CEDARS-SINAI MEDICAL CENTER, priority 2006, published 2009).
d = 2'-deoxy (DNA); r = 2'-OH (RNA)

Assays:
Format in all cases: cell-based, human
caspase-3, -8, and -9 [1] = assay: Caspase activity assay in TRAIL-treated glioma cells
Procedure: (§1) Activity of caspase-3, -8, and -9 was measured using caspase-3/CPP32, FLICE/caspase-8, and APOPCYTO/caspase-9 […] assay kits, respectively, from Medical and Biological Laboratories Co. (Nagoya, Japan). Briefly, the treatment of cells with TG, GW, and/or PTPI for 24 h was followed by treatment with rTRAIL, VP 16 or Taxol. After 2 h (24 h) of treatment, all the cells were harvested, and samples were extracted with Cell Lysis Buffer. Concurrently, a sample for a negative control was extracted from the cells without apoptosis induction. A standard curve using the absorbance of p-nitroanilide standards was constructed, and then the specific activities on each sample were calculated according to the manufacturer's protocol.

[2] = system: STAT3, pY705-STAT3, FLIP, Bcl-2, Bax, pS392-p53, PTP1B, SHP-1; assay: Western blot of glioma cell protein extracts
Excerpt: Rabbit polyclonal Abs against DR4, DR5, and PPARγ were obtained from Cayman Chemical. Mouse monoclonal Abs against STAT3, phosphotyrosine 705 STAT3 (pY705-STAT3), which is an activated form of STAT3, Bax, and Bcl-2 were obtained from Pharmingen. Rabbit polyclonal Abs against p53 and phosphor-Ser-392-p53 (pS392-p53) were obtained from Cell Signaling Technology (Beverly, Mass.). Mouse monoclonal Abs against PTP1B (PTPase1B; AE4-2J) and Src homology 2-containing PTP-1 (SHP1; 1SH01) and rabbit polyclonal Ab against FLIP were obtained from Calbiochem. Mouse monoclonal Ab of β-tubulin was obtained from Sigma. Horseradish peroxidase-linked Abs of sheep anti-mouse IgG and donkey anti-rabbit IgG were obtained from Amersham Biosciences.
Samples were extracted with buffer containing 1% Triton X-100, 150 mM NaCl, 50 mM Tris (pH 7.5), and 1 mM phenylmethylsulfonyl fluoride (Roche Applied Science) and were subjected to SDS-PAGE with 30 μg of general protein loading into each lane on a 10% polyacrylamide gel. Electrophoretic transfer to nitrocellulose membranes (Amersham Biosciences) was followed by immunoblotting. The signal was detected by using an ECL detection system (Amersham Biosciences).

[3] = system: LN-18, U-87MG, and MG-328 glioma cells; assay: Cell viability assay (Ann/PI staining, FACS) with TRAIL
Procedure: (§2) Treatment of cells with TG, GW, PTPI, and/or SHPI for 24 h was followed by treatment with rTRAIL, VP16 or Taxol, and all the cells, including cells that had not adhered, were harvested after 24 h (48 h). An annexin V-fluorescein isothiocyanate apoptosis detection kit I (Pharmingen) was used for viability assay of the cells. Cells were stained with annexin V-fluorescein isothiocyanate (Ann) and propidium iodide (PI) according to the manufacturer's protocol and were analyzed by FACS (Pharmingen). Cells that stained negative for both Ann and PI were defined as viable cells for viability assay.

U-87MG cells = assay: Cell viability assay (Ann/PI staining, FACS) with VP16 or Taxol; conditions: for proliferation of cells in the control group (no TG or PTPI): 5-day cell cultures, U-87MG (not shown)
Procedure: as §2
(§3) Based on this hypothesis, a determination was sought whether TG enhances the cytotoxic activities of etoposide (VP16) and paclitaxel (Taxol), which are known to involve activation of caspase-2, -8, -9, and -10 during their apoptosis induction (Lin et al. (2004) J. Biol. Chem. 279, 40755-40761.; Perkins et al. (2000) Cancer Res. 60, 1645-1653.; Park et al. (2004) J. Biol. Chem. 279, 51057-51067.). To confirm this, treatment of U-87MG with TG and/or PTPI was followed by treatment with VP16 (0.01-10 μM) or Taxol (0.005-5 μM). The cells were then subjected to cell viability (FIGS. 7, A and B) and caspase activity assays (FIGS. 7, C and D).

caspase-3, -8, and -9 [4] = assay: Caspase activity assay in U-87MG treated with VP16 or Taxol; conditions: PTPI 50 μM and TG 30 μM for 24 h, then VP16 10 μM or Taxol 5 μM
Procedure: as §1, §3

STAT3 mRNA = assay: Real time quantitative RT-PCR; conditions: LN-18; STAT3-siRNA 50-600 pmol; 24 h after transfection; dose-dependent
Procedure: DNA amplification was performed using an […] […] ID NO: 3), STAT3 reverse, [NT] ID NO: 4); and β-actin forward, [NT] ID NO: 5), β-actin reverse, [NT] ID NO: 6).

LN-18 = assay: Annexin V apoptosis detection (FACS) after TRAIL treatment; conditions: TRAIL 300 ng/ml
Procedure: as §2, with “Treatment of cells with TG, GW, PTPI, and/or SHPI for 24 h was followed by treatment with rTRAIL, VP16 or Taxol, and all the cells, including cells that had not adhered, were harvested after 24 h (48 h).” left out
To examine the mechanism that causes resistance to TRAIL, glioma cell lines were used that are partially resistant to TRAIL despite their expression of DR4 and/or DR5. Western blot was used to detect the expression levels of DR4 and DR5 in LN-18, U-87MG, and MG-328 (FIG. 1A). The cytotoxic activity of TRAIL (18.75-300 ng/ml) was examined in each glioma (FIGS. 1, B and C). […] These findings indicate that these gliomas can acquire a resistance to TRAIL despite their expression of functionally intact DR4/5.

[5] = SHPI 200 μM and TG 30 μM, then rTRAIL (not shown)
[6] = STAT3-siRNA-transfected glioma cells

O=C(Nc1ccccc1)c1cc([N+](=O)[O-])ccc1Cl [GW, GW9662]
effect on the specific activities of caspases in TG/TRAIL-treated cells (caspase-3, -8, and -9 [1]; GW 20 μM and TG 30 μM for 24 h, then rTRAIL 100 ng/ml for 2 h): did not reduce
pY705-STAT3 expression in cells treated with TG and GW ([2]; GW 20 μM and TG 30 μM for 24 h): down-regulation of pY705-STAT3 was observed
effect on the up-regulation of pS392-p53 induced by TG ([2]; GW 20 μM and TG 30 μM for 24 h, LN-18 and U-87MG): abrogated
effect on the up-regulation of Bax found in TG-treated cells ([2]; GW 20 μM and TG 30 μM for 24 h, U-87MG): inhibited
effect on the activity of TG in TRAIL-treated glioma cells (cell viability) ([3]; GW 20 μM and TG 30 μM for 24 h, then rTRAIL 100 ng/ml for 24 h): not blocked

O=C(CBr)c1ccc(O)cc1 [PTPI, α-bromo-4-hydroxyacetophenone]
inhibition of the cytotoxic activity in TG-treated cells with VP16 or Taxol (U-87MG cells; U-87MG, PTPI 50 μM and TG 30 μM for 24 h, then VP16 or Taxol): limited effect
effect on the effect of TG on TRAIL (caspase activity) (caspase-3, -8, and -9 [1]; PTPI 50 μM and TG 30 μM, then rTRAIL 100 ng/ml for 2 h): abrogated
effect on the inhibitory effect of TG on pY705-STAT3 ([2]; PTPI 50 μM and TG 30 μM for 24 h): abrogated
effect on the upregulation of pS392-p53 caused by TG ([2]; PTPI 50 μM and TG 30 μM for 24 h, LN-18 and U-87MG): did not inhibit
effect on the effect of TG on TRAIL (cell viability) ([3]; PTPI 50 μM and TG 30 μM, then rTRAIL 100 ng/ml (not shown)): abrogated
effect on the effect of TG on the activity of caspase-8 and -9 (caspase-3, -8, and -9 [4]): completely abrogated
inhibition of caspase-3 activity in TG-treated cells with VP16 or Taxol (caspase-3, -8, and -9 [4]): limited effect

O=C(O)COc1ccc(C(=O)CBr)cc1 [SHPI, α-bromo-4-carboxymethoxyacetophenone]
effect on the effect of TG on TRAIL (caspase activity) (caspase-3, -8, and -9 [1]; [5]): did not abrogate
effect on the downregulation of pY705-STAT3 induced by TG ([2]; SHPI 200 μM and TG 30 μM for 24 h): did not inhibit
effect on the effect of TG on TRAIL (cell viability) [3, 5]: did not abrogate

Cc1c(C)c2c(c(C)c1O)CCC(C)(COc1ccc(CC3SC(=O)NC3=O)cc1)O2 (centres unmarked) [TG, troglitazone]
effect on the cytotoxic activity of Taxol (cell viability) (U-87MG cells; U-87MG, TG 30 μM for 24 h, then Taxol 0.005-5 μM for 48 h): positive activities
effect on the cytotoxic activity of VP16 (cell viability) (U-87MG cells; U-87MG, TG 30 μM for 24 h, then VP16 0.01-10 μM for 48 h): positive activities
time at which down-regulation of pY705-STAT3 was noticeable ([2]; TG 30 μM): 8 h
STAT3 expression levels ([2]; TG 30 μM, LN-18, U-87MG, MG-328): no effect
time at which 42 kDa PTP1B expression reached maximum levels ([2]; TG 30 μM, all gliomas): 16 to 32 h
time of start of up-regulation of the activated form of PTP1B (42 kDa) after treatment ([2]; TG 30 μM, all gliomas): ≤ 4 h
effect on the cytotoxic activity of TRAIL ([3]; TG 30 μM for 24 h, then rTRAIL 100 ng/ml for 24 h, LN-18, U-87MG and MG-328): significantly enhance

CC(=O)O[C@H]1C(=O)[C@@]2(C)[C@H]([C@H](OC(=O)c3ccccc3)[C@]3(O)C[C@H](OC(=O)[C@H](O)[C@@H](NC(=O)c4ccccc4)c4ccccc4)C(C)=C1C3(C)C)[C@]1(OC(C)=O)CO[C@@H]1C[C@@H]2O [Taxol, paclitaxel]
proliferation of cells in the control group (no TG or PTPI) (U-87MG cells; Taxol 5 μM): maintained an ability to proliferate

COc1cc([C@@H]2c3cc4c(cc3[C@@H](O[C@@H]3O[C@@H]5CO[C@@H](C)O[C@H]5[C@H](O)[C@H]3O)[C@H]3COC(=O)[C@H]23)OCO4)cc(OC)c1O [VP16, Etoposide]
proliferation of cells in the control group (no TG or PTPI) (U-87MG cells; VP16 10 μM): maintained an ability to proliferate

STAT3-siRNA: double-stranded siRNA oligonucleotide against STAT3 (SEQ ID NO: 1 and 2), Dharmacon (chain 1 AACAUCUGCCUAGAUCGGCUATT; chain 2 UAGCGGAUCUAGGCAGAUG; chain 1: sugars from the 5' end r21 d2, backbone not given here; chain 2: RNA, 3' dTdT, backbone not given here)
specific activities of caspases-3, -8, and -9 (caspase-3, -8, and -9 [1]; STAT3-siRNA 600 pmol, then TRAIL 100 ng/ml for 2 h): significantly increased
inhibitory effect of PTPI on TG in transfected glioma cells (caspase activity) (caspase-3, -8, and -9 [1]; STAT3-siRNA 600 pmol, cells treated with TG, PTPI and TRAIL): negated
STAT3 protein expression ([2]; LN-18, STAT3-siRNA 50-600 pmol, 24 h after transfection, dose-dependent): decreased
Bax expression levels [2, 6]: not altered
FLIP and Bcl-2 expression levels [2, 6]: decreased
pY705-STAT3 expression [2, 6]: down-regulated
effect on the cytotoxic effect of TRAIL ([3]; STAT3-siRNA 600 pmol, then TRAIL 100 ng/ml for 24 h): significantly enhanced
apoptotic death of glioma cells, agent alone ([3]; STAT3-siRNA 600 pmol, without rTRAIL): did not induce their apoptotic death
STAT3 mRNA expression (STAT3 mRNA): decreased

B1: TRAIL: Recombinant human tumor necrosis factor-related apoptosis-inducing ligand, obtained from Pepro-Tech (protein, UniProt P50591 1-281, looked up)
Tumor necrosis factor ligand …: MAMMEVQGGPSLGQTCVLIVIFTVLLQSLCVAVTYVYFTNELKQMQDKYSKSGIACFLKEDDSYWDPNDEESMNSPCWQVKWQLRQLVRKMILRTSEETISTVQEKQQNISPLVRERGPQRVAAHITGTRGRSNTLSSPNSKNEKALGRKINSWESSRSGHSFLSNLHLRNGELVIHEKGFYYIYSQTYFRFQEEIKENTKNDKQMVQYIYKYTSYPDPILLMKSARNSCWSKDAEYGLYSIYQGGIFELKENDRIFVSVTNEHLIDMDHEASFFGAFLVG
percentage of Ann(+) PI(−) cells (early stage of apoptosis) (LN-18; after 2 h of treatment): 33.7%
percentage of Ann(+) PI(−) cells (early stage of apoptosis) (LN-18; after 24 h of treatment): 60.1%
cell death ([3]; 300 ng/ml TRAIL, after 24 h of treatment, LN-18, U-87MG, MG-328): 40-60%
cells killed by TRAIL in the STAT3-siRNA-transfected group ([3]; TRAIL 100 ng/ml, 72-h cell culture, each glioma (not shown)): more than 95%
proliferative ability of the viable cells ([3]; after 72 h of cell culture with 300 ng/ml TRAIL (not shown)): maintained a proliferative ability
